Results reported in ChEMBL document CHEMBL1138765, “Design, synthesis, and biological evaluation of biotin conjugates of 2-cyano-3,12-dioxooleana-1,9(11)-dien-28-oic acid for the isolation of the protein targets” (J Med Chem, 2004).

System: MCF7
Assay: Inhibitory concentration against proliferation of MCF-7 (ER Positive) breast cancer cells
Format: functional, cell-based
Details: Homo sapiens

## COC(=O)[C@]12CCC(C)(C)CC1C1C(=O)C=C3[C@@]4(C)C=C(C#N)C(=O)[C@@](C)(COC(=O)CCCCCNC(=O)CCCC[C@@H]5SC[C@@H]6NC(=O)N[C@@H]65)[C@@H]4CC[C@@]3(C)[C@]1(C)CC2 (stereo partly specified)
  IC50: 550 nM

## COC(=O)[C@]12CCC(C)(C)CC1C1C(=O)C=C3[C@@]4(C)C=C(C#N)C(=O)[C@@](C)(CO)[C@@H]4CC[C@@]3(C)[C@]1(C)CC2 (stereo partly specified)
  IC50: 80 nM

## CC1(C)CC[C@]2(C(=O)NCCCCCCNC(=O)CCCCC3SC[C@@H]4NC(=O)N[C@H]34)CC[C@]3(C)C(C(=O)C=C4[C@@]5(C)C=C(C#N)C(=O)C(C)(C)[C@@H]5CC[C@]43C)C2C1 (stereo partly specified)
  IC50: 3310 nM

## CC1(C)CC[C@]2(C(=O)NCCCC(=O)NCCCCCCNC(=O)CCCCC3SC[C@@H]4NC(=O)N[C@H]34)CC[C@]3(C)C(C(=O)C=C4[C@@]5(C)C=C(C#N)C(=O)C(C)(C)[C@@H]5CC[C@]43C)C2C1 (stereo partly specified)
  IC50: 5260 nM

## COC(=O)[C@]12CCC(C)(C)C[C@H]1[C@H]1C(=O)C=C3[C@@]4(C)C=C(C#N)C(=O)C(C)(C)[C@@H]4CC[C@@]3(C)[C@]1(C)CC2 [BARDOXOLONE METHYL]
  IC50: 50 nM

## CC1(C)CC[C@]2(C(=O)O)CC[C@]3(C)[C@H](C(=O)C=C4[C@@]5(C)C=C(C#N)C(=O)C(C)(C)[C@@H]5CC[C@]43C)[C@@H]2C1 [BARDOXOLONE]
  IC50: 160 nM
